Reference: patent US20250213563A1, “SUBSTITUTED PYRIMIDIN-4(3H)-ONES FOR USE IN TREATING CANCER” (NAVIRE PHARMA, INC., priority 2021, published 2025)
Where two headings read alike, the source gives them in different places.

Assays:
[1] = Single-dose pharmacokinetics, CD-1 mouse; type: in vivo, mouse (CD-1, female); conditions: for AUC(0-t): read-out: AUC0→24
Protocol: The pharmacokinetic (PK) parameters of Compound (10b) (freebase) were determined following single intravenous (IV) and oral (PO) administration in female CD-1 mouse, female C57BL/6 mouse (PO only), male Sprague Dawley rat, male Beagle dog, and male Cynomolgus monkey. Additional evaluation of the PK properties of Compound (10b) was obtained following single dose PO administration in female CD-1 mouse, male Sprague Dawley rat and male Beagle dog over a dose range spanning 10 to 300 mg/kg (mouse and rat) and 1 to 100 mg/kg (dog). The intravenous dose solutions were prepared in 20% DMSO-60% PEG400-20% water and the oral dose solutions as suspensions in 0.5% methylcellulose in water, unless otherwise noted. Plasma concentration profiles were generated from serial sampling in individual animals up to 24 hours post dose, except for the studies in mice where composite sampling methods were used (i.e. 3 sampling times per mouse; 9 mice per group). […] Exposures increased with increasing dose level across species, in a dose-proportional manner in mouse and dog, and in a greater than dose-proportional manner in rat (80× increase in AUC with a 30× increase in dosage).

HCC827 [2] = assay: pERK protein levels (HTRF); type: cell-based; conditions: Homo sapiens; HCC827, EGFR^Ex19del
Protocol: (§1) The potency of Compound (10b) in a panel of human tumor cell lines with active MAPK signaling was assessed. Cell viability in a 3D culture system was assessed by measuring CellTiter-Glo (CTG) luminescence following 8 days of treatment with nine concentrations of Compound (10b). MAPK pathway signaling was assessed by measuring pERK protein levels and DUSP6 mRNA levels by homogeneous time resolved fluorescence (HTRF) and quantitative polymerase chain reaction (qPCR), respectively. […] These viability effects correlated with pERK inhibition (Table 2, FIG. 6B) and DUSP6 inhibition (FIG. 6C).

NCI-H1975 [3] = assay: pERK protein levels (HTRF); type: cell-based; conditions: Homo sapiens; NCI-H1975, EGFR^L858R/T790M
Protocol: as §1

KYSE-520 [4] = assay: pERK protein levels (HTRF); type: cell-based; conditions: Homo sapiens; KYSE-520, EGFR^amp
Protocol: as §1

[5] = target: T1, Large tumor suppressor kinase 1 (LATS1) (Homo sapiens, UniProt O95835); assay: KINOMEscan competition binding; conditions: read-out: ligand binding, % control
T1 construct: purchased DiscoverX (KINOMEscan platform)
T1 sequence (O95835 whole entry): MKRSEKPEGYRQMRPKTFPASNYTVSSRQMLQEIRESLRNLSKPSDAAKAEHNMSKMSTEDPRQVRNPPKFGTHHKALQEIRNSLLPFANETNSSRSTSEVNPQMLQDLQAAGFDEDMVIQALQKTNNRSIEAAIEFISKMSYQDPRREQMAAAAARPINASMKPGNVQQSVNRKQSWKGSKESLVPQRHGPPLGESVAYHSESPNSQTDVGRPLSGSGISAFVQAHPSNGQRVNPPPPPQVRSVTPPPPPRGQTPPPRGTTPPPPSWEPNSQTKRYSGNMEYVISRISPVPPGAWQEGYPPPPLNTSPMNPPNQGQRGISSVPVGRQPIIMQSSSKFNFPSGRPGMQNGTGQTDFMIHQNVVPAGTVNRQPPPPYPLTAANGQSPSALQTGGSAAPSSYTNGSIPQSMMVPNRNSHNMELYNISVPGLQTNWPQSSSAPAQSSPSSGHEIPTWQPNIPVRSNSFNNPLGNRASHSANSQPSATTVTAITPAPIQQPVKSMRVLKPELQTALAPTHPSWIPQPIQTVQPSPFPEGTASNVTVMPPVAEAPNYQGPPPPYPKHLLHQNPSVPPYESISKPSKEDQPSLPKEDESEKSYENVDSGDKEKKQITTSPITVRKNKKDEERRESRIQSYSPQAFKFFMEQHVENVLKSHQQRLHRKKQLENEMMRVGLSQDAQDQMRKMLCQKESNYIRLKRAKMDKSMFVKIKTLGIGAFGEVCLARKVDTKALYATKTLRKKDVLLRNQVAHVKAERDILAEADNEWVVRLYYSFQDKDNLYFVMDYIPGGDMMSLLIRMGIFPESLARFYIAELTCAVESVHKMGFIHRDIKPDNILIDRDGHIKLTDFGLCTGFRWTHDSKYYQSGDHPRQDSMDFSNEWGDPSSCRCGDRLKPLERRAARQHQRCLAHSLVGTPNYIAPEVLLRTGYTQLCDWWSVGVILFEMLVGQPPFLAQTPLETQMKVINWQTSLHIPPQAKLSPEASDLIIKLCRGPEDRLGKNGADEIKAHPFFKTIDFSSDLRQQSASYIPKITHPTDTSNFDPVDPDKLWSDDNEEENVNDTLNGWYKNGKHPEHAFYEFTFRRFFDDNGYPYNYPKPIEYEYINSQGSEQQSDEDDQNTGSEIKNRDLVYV
Protocol: (§2) Activity of Compound (10b) (1 μM) was assessed against a panel of 419 human kinases (including a set of disease-relevant mutant variants). Assays were conducted using the KINOMEscan™ platform from DiscoverX which measures compound interaction with kinases using active site-directed competition binding assays. Displacement of ligand binding to the kinase by <35% of the control value is considered significant. Of the 419 kinases tested, only 4 kinases reached this level of displacement: Protein kinase C eta (PRKCH), 34% control; Large tumor suppressor kinase 1 (LATS1), 32% control; General control nonderepressible 2 kinase (GCN2), 21% control; and Hematopoietic Progenitor Kinase 1 (HPK1), 4.4% control.

[6] = target: T2, Protein kinase C eta (PRKCH) (Homo sapiens, UniProt P24723); assay: KINOMEscan competition binding; conditions: read-out: ligand binding, % control
T2 construct: purchased DiscoverX (KINOMEscan platform)
T2 sequence (P24723 whole entry): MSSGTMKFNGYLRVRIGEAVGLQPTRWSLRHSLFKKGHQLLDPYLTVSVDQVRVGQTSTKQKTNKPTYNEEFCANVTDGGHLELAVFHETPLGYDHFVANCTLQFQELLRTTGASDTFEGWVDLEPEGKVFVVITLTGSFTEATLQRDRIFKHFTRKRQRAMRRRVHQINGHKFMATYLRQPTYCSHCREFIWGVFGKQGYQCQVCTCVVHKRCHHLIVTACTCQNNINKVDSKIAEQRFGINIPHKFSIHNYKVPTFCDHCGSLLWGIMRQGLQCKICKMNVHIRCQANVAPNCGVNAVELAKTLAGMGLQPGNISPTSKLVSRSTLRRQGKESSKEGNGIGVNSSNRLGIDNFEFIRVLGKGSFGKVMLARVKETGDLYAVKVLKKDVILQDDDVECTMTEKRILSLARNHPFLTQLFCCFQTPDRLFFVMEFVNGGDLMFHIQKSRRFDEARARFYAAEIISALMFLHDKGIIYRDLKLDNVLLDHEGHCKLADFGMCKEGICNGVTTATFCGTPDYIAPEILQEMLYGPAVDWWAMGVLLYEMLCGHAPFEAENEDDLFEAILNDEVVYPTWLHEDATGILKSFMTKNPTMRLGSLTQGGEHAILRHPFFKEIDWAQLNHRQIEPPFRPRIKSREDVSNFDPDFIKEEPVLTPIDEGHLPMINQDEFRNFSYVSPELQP
Protocol: as §2

MIA PaCa-2 CDX model = assay: Monotherapy anti-tumor activity, CDX model; type: in vivo, immunocompromised mice; conditions: 100 mg/kg daily orally, 21 to 33 days; KRAS^G12C
Protocol: (§3) In vivo efficacy studies were conducted to evaluate the monotherapy anti-tumor activity of Compound (10b) across a panel of cell line-derived xenograft (CDX) models. […] Significant anti-tumor efficacy was also observed in two CDX models with acquired resistance to EGFR inhibitors.

NCI-H358 CDX model = assay: Monotherapy anti-tumor activity, CDX model; type: in vivo, immunocompromised mice; conditions: 100 mg/kg daily orally, 21 to 33 days; KRAS^G12C
Protocol: as §3

NCI-H1975-OR CDX model = assay: Monotherapy anti-tumor activity, CDX model; type: in vivo, immunocompromised mice; conditions: 100 mg/kg daily orally, 21 to 33 days; EGFR^L858R, EGFR^T790M, EGFR^C797S
Protocol: as §3

HCC827-ER CDX model = assay: Monotherapy anti-tumor activity, CDX model; type: in vivo, immunocompromised mice; conditions: 100 mg/kg daily orally, 21 to 33 days; MET^amp, resistant to EGFR inhibitor
Protocol: as §3

KYSE-520 model = assay: Monotherapy anti-tumor activity, CDX model; type: in vivo, immunocompromised mice; conditions: 100 mg/kg daily orally, 21 to 33 days; EGFR^amp
Protocol: as §3

NCI-H1299 = assay: 3D cell viability (CellTiter-Glo); type: cell-based; conditions: Homo sapiens, 192 h; NCI-H1299, NRAS^Q61K; 8 days of treatment; read-out: 3D CTG (IC50)
Protocol: as §1

HCC827 [7] = assay: 3D cell viability (CellTiter-Glo); type: cell-based; conditions: Homo sapiens, 192 h; HCC827, EGFR^Ex19del; 8 days of treatment; read-out: 3D CTG (IC50)
Protocol: as §1

NCI-H1975 [8] = assay: 3D cell viability (CellTiter-Glo); type: cell-based; conditions: Homo sapiens, 192 h; NCI-H1975, EGFR^L858R/T790M; 8 days of treatment; read-out: 3D CTG (IC50)
Protocol: as §1

NCI-H358 = assay: 3D cell viability (CellTiter-Glo); type: cell-based; conditions: Homo sapiens, 192 h; NCI-H358, KRAS^G12C; 8 days of treatment; read-out: 3D CTG (IC50)
Protocol: as §1

KYSE-520 [9] = assay: 3D cell viability (CellTiter-Glo); type: cell-based; conditions: Homo sapiens, 192 h; KYSE-520, EGFR^amp; 8 days of treatment; read-out: 3D CTG (IC50)
Protocol: as §1

[10] = target: T3, Hematopoietic Progenitor Kinase 1 (HPK1) (Homo sapiens, UniProt Q92918); assay: KINOMEscan competition binding and Kd dose-response
T3 construct: purchased DiscoverX (KINOMEscan platform)
T3 sequence (Q92918 whole entry): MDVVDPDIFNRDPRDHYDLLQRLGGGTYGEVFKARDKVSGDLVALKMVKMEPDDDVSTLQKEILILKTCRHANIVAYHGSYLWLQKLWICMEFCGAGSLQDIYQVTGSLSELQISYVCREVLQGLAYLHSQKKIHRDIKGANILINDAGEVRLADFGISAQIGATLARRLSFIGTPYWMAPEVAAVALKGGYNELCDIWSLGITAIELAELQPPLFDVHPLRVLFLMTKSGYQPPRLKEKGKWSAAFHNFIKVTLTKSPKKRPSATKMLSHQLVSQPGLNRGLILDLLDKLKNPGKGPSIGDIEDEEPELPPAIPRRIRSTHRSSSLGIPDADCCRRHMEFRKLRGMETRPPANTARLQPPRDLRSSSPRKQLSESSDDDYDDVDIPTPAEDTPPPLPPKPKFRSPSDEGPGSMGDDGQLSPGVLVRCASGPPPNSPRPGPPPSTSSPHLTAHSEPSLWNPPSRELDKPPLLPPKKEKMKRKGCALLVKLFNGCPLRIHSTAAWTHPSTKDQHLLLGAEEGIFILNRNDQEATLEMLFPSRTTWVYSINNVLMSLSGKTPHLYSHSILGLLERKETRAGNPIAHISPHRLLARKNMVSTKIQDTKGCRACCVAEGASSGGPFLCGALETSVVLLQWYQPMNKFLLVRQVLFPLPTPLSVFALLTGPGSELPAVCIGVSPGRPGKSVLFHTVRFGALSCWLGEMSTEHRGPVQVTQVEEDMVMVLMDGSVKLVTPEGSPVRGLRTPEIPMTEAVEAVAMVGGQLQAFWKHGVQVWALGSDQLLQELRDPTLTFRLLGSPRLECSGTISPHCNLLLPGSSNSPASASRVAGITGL
Protocol: as §2
HPK1 is a hematopoietic cell-restricted serine/threonine kinase and is not expressed in any major organs. HPK1 has been implicated in activation of c-Jun N-terminal kinases (JNK) and genetic disruption of HPK1 is reported to enhance the antitumor immune response of T cells and dendritic cells (Hu et al 1996; Sawasdikosol et al 2012).

[11] = female, CD-1, mouse, plasma, IV 1 mg/kg, free base
[12] = female, CD-1, mouse, plasma, oral 10 mg/kg, free base

In the case of Cc1c(N2CCC3(CC2)CO[C@@H](C)[C@H]3N)nc(C)n(-c2cccc(Cl)c2Cl)c1=O (atropisomer, axis not shown; (Ra)) [Compound (10b), 6-((3S,4S)-4-amino-3-methyl-2-oxa-8-azaspiro[4.5]decan-8-yl)-3-(Ra)-(2,3-dichlorophenyl)-2,5-dimethylpyrimidin-4(3H)-one], the half-life [1, 11] is reported as 133 min, the AUC(0-t) [1, 11] is reported as 1.39 µM·h and the clearance ([1]; female, CD-1, mouse, plasma, IV 1 mg/kg, free base, read-out: Clp (converted)) is reported as 25.7 mL/min/kg. For the same compound, the Vd ([1]; female, CD-1, mouse, plasma, IV 1 mg/kg, free base, read-out: Vdss) was 3.84 L/kg, the Cmax [1, 12] was 4.17 µM and the AUC(0-t) [1, 12] was 12.5 µM·h. It also gave a Tmax ([1]; female, CD-1, mouse, plasma, oral 10 mg/kg, free base, read-out: Tmax (mean)) of 15 min, a Tmax ([1]; female, CD-1, mouse, plasma, oral 300 mg/kg, read-out: mean Tmax) of 15 min and an F ([1]; oral 10 mg/kg, free base) of 84.1%. For the same compound, the IC50 (HCC827 [2]) was 0.46 µM, the IC50 (NCI-H1975 [3]) was 0.4 µM and the IC50 (KYSE-520 [4]) was 0.073 µM. The remaining binding at 1 µM [5] was 32%, the remaining ligand binding at 1 µM [6] was 34% and the “tumor growth inhibition (TGI)” value (MIA PaCa-2 CDX model) was 74%. The mean tumor regression (NCI-H358 CDX model) was 50%, the mean tumor regression (NCI-H1975-OR CDX model) was 87% and the TGI (HCC827-ER CDX model) was 84%. The TGI (KYSE-520 model) was 77%, the IC50 (NCI-H1299) was > 25 µM and the IC50 (HCC827 [7]) was 1.2 µM. The IC50 (NCI-H1975 [8]) was 0.18 µM, the IC50 (NCI-H358) was 0.28 µM and the IC50 (KYSE-520 [9]) was 0.21 µM. The ligand binding, % of control at 1 µM ([10]; 1 μM) was 4.4% and the Kd ([10]; dose-response curve) was 9.8 µM.
